According to ChEMBL document CHEMBL1201862, “PubChem BioAssay data set” (2004):
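Results reflect a 48-hour exposure of cells in 96-well plates to compound at five concentrations. At the GI50, growth is halved.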 The source made the active and inactive calls. Rule as the data show it: active = GI50 up to about 1.1 µM and inactive = higher.

Columns and labels:
Assay in all cases: inhibition of tumour cell growth, NCI panel, 48 h
[1] = test system: EKVX
[2] = test system: KM-20L2
[3] = test system: RXF 393
[4] = test system: U-251
[5] = test system: UACC-62
[6] = test system: SF-295
[7] = test system: M14
[8] = test system: A549
[9] = test system: SN12C
[10] = test system: SNB-75
[11] = test system: KM12
[12] = test system: OVCAR-5
[13] = test system: UO-31
[14] = test system: HCT-15
[15] = test system: RPMI-8226
[16] = test system: NCI-H522
[17] = test system: SW-620
[18] = test system: HOP-62
[19] = test system: LOX IMVI
[20] = test system: SNB-19
[21] = test system: HCT-116
[22] = test system: Malme-3M
[23] = test system: SF-539
[24] = test system: DLD-1
[25] = test system: IGROV-1
[26] = test system: 786-0
[27] = test system: XF498
[28] = test system: A498
[29] = test system: CCRF-CEM
[30] = test system: NCI-H23
[31] = test system: OVCAR-3
[32] = test system: HOP-92
[33] = test system: SNB-78
[34] = test system: NCI-H460
[35] = test system: MOLT-4
[36] = test system: ACHN
[37] = test system: TK-10
[38] = test system: LXFL 529
[39] = test system: K562
[40] = test system: HCC 2998
[41] = test system: HOP-18
[42] = test system: SF-268
[43] = test system: M19-MEL
[44] = test system: OVCAR-4
[45] = test system: HT-29
[46] = test system: SK-MEL-5
[47] = test system: SK-MEL-2
[48] = test system: CAKI-1
[49] = test system: SK-OV-3
[50] = test system: OVCAR-8
[51] = test system: HL-60
[52] = test system: SK-MEL-28
[53] = test system: SR
[54] = test system: DMS-273
[55] = test system: COLO 205
[56] = test system: DMS-114
[57] = test system: UACC-257
[58] = test system: NCI-H226

CCOC(=O)C[C@@]12CCCN[C@]1(C)CCc1ccccc12
GI50 [1]: > 100 µM (inactive)
GI50 [2]: > 100 µM (inactive)
GI50 [3]: > 100 µM (inactive)
GI50 [4]: > 100 µM (inactive)
GI50 [5]: > 100 µM (inactive)
GI50 [6]: > 100 µM (inactive)
GI50 [7]: > 100 µM (inactive)
GI50 [8]: > 100 µM (inactive)
GI50 [9]: > 100 µM (inactive)
GI50 [10]: > 100 µM (inactive)
GI50 [11]: > 100 µM (inactive)
GI50 [12]: > 100 µM (inactive)
GI50 [13]: > 100 µM (inactive)
GI50 [14]: > 100 µM
GI50 [15]: > 100 µM (inactive)
GI50 [16]: > 100 µM (inactive)
GI50 [17]: > 100 µM (inactive)
GI50 [18]: > 100 µM (inactive)
GI50 [19]: > 100 µM (inactive)
GI50 [20]: > 100 µM (inactive)
GI50 [21]: > 100 µM (inactive)
GI50 [22]: > 100 µM (inactive)
GI50 [23]: > 100 µM (inactive)
GI50 [24]: > 100 µM (inactive)
GI50 [25]: > 100 µM (inactive)
GI50 [26]: > 100 µM (inactive)
GI50 [27]: > 100 µM (inactive)
GI50 [28]: > 100 µM (inactive)
GI50 [29]: > 100 µM (inactive)
GI50 [30]: > 100 µM (inactive)
GI50 [31]: > 100 µM (inactive)
GI50 [32]: 97.1 µM (inactive)
GI50 [33]: > 100 µM (inactive)
GI50 [34]: > 100 µM (inactive)
GI50 [35]: > 100 µM (inactive)
GI50 [36]: > 100 µM (inactive)
GI50 [37]: > 100 µM (inactive)
GI50 [38]: > 100 µM (inactive)
GI50 [39]: > 100 µM (inactive)
GI50 [40]: > 100 µM (inactive)
GI50 [41]: > 100 µM (inactive)
GI50 [42]: > 100 µM (inactive)
GI50 [43]: > 100 µM (inactive)
GI50 [44]: > 100 µM (inactive)
GI50 [45]: > 100 µM (inactive)
GI50 [46]: > 100 µM (inactive)
GI50 [47]: > 100 µM (inactive)
GI50 [48]: > 100 µM (inactive)
GI50 [49]: > 100 µM (inactive)
GI50 [50]: > 100 µM (inactive)
GI50 [51]: > 100 µM (inactive)
GI50 [52]: > 100 µM (inactive)
GI50 [53]: > 100 µM (inactive)

O=C(NCc1ccccc1)c1cc2cc(O)c(O)cc2cn1
GI50 [1]: 41.3 µM (inactive)
GI50 [2]: 29.4 µM (inactive)
GI50 [3]: 21 µM (inactive)
GI50 [4]: 17.5 µM (inactive)
GI50 [5]: 16.6 µM (inactive)
GI50 [6]: 24.3 µM (inactive)
GI50 [7]: 16.6 µM (inactive)
GI50 [8]: 29 µM (inactive)
GI50 [9]: 31.2 µM (inactive)
GI50 [10]: 23.8 µM (inactive)
GI50 [11]: 31.9 µM (inactive)
GI50 [12]: 33.5 µM (inactive)
GI50 [13]: 18.1 µM (inactive)
GI50 [54]: 4.7 µM (inactive)
GI50 [55]: 34.8 µM (inactive)
GI50 [14]: 20 µM
GI50 [15]: 24.6 µM (inactive)
GI50 [16]: 4.69 µM (inactive)
GI50 [17]: 42.6 µM (inactive)
GI50 [18]: 20 µM (inactive)
GI50 [19]: 14.4 µM (inactive)
GI50 [20]: 46.9 µM (inactive)
GI50 [21]: 30.3 µM (inactive)
GI50 [22]: 34.6 µM (inactive)
GI50 [23]: 29 µM (inactive)
GI50 [24]: 36.7 µM (inactive)
GI50 [25]: 30.3 µM (inactive)
GI50 [26]: 22.9 µM (inactive)
GI50 [56]: 4.48 µM (inactive)
GI50 [27]: 28.4 µM (inactive)
GI50 [28]: 73.3 µM (inactive)
GI50 [29]: 6.4 µM (inactive)
GI50 [30]: 14 µM (inactive)
GI50 [31]: 34.1 µM (inactive)
GI50 [32]: 39.1 µM (inactive)
GI50 [33]: 50.5 µM (inactive)
GI50 [34]: 9.79 µM (inactive)
GI50 [36]: 12.5 µM (inactive)
GI50 [37]: 39.9 µM (inactive)
GI50 [38]: 16 µM (inactive)
GI50 [39]: 12.1 µM (inactive)
GI50 [40]: 32.7 µM (inactive)
GI50 [41]: 13.8 µM (inactive)
GI50 [42]: 14.4 µM (inactive)
GI50 [43]: 20.1 µM (inactive)
GI50 [44]: 25.5 µM (inactive)
GI50 [45]: 26.7 µM (inactive)
GI50 [46]: 22.8 µM (inactive)
GI50 [57]: 26.9 µM (inactive)
GI50 [47]: 46.3 µM (inactive)
GI50 [48]: 35.6 µM (inactive)
GI50 [49]: 40.8 µM (inactive)
GI50 [58]: 26.9 µM (inactive)
GI50 [50]: 21.2 µM (inactive)
GI50 [51]: 13.5 µM (inactive)
GI50 [52]: 35.7 µM (inactive)
GI50 [53]: 13.8 µM (inactive)
